According to ChEMBL document CHEMBL3769344 (J Med Chem, 2016):

How the values were obtained:
MDCK = test: Cytotoxicity against MDCK cells assessed as cell viability after 72 hrs by MTT assay; assay type: cell-based, Canis lupus familiaris; settings: dog
[1] = biological target: Matrix protein 2 (Influenza A virus (A/Udorn/307/1972(H3N2)), UniProt P0DOF8); test: Inhibition of Influenza A virus wild type M2 proton channel infected in Xenopus laevis oocytes after 2 mins by TEVC assay; assay type: cell-based
Matrix protein 2 (Influenza A virus (A/Udorn/307/1972(H3N2)), UniProt P0DOF8), sequence (P0DOF8 whole entry): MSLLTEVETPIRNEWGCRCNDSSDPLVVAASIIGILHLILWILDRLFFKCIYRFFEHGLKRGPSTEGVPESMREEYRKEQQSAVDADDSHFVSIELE

Influenza A virus = test: Antiviral activity against Influenza A virus A/udorn/72(H3N2) expressing wild type M2 proton channel infected in MDCK cells assessed as reduction in plaque formation preincubated for 30 mins followed by infection measured on day 2 post infection by naphthalene black dye-based assay; assay type: functional, organism-based, Influenza A virus (A/udorn/1972(H3N2))

Row | Structure (SMILES) | CC50 (MDCK) [µM] | other results
1 | c1csc(-c2ncc(CNC34CC5CC(CC(C5)C3)C4)s2)c1 | 113 | –
2 | c1csc(-c2nnc(CNC34CC5CC(CC(C5)C3)C4)s2)c1 | > 200 | –
3 | C1CCC2(CC1)CCNCC2 | – | IC50 [1]: 0.9 µM
4 | NC12CC3CC(CC(C3)C1)C2 [AMANTADINE] | – | EC50 (Influenza A virus): 0.3 µM
5 | OC12CC3CC(O)(C1)CC(NCc1cc(-c4cccs4)on1)(C3)C2 | > 200 | –
6 | c1csc(-c2cc(NC34CC5CC(CC(C5)C3)C4)no2)c1 | 100 | –
7 | OC1C2CC3CC1CC(NCc1cc(-c4cccs4)on1)(C3)C2 (configuration not stated) | 116 | –
